Calls of active or inactive are those of the source. No cut-off for these calls is given here.
Columns and labels:
Calu-6 [1] = assay: Antitumor activity against human Calu-6 cells xenografted in CD1 nu/nu mouse assessed as tumor growth inhibition at 60 mg/kg, […] q3d administered via gavage for 7 days measured twice per week during compound dosing; type: functional, organism-based; conditions: time 7.0 day
Calu-6 [2] = assay: Antitumor activity against human Calu-6 cells xenografted in CD1 nu/nu mouse assessed as tumor growth inhibition at 150 mg/kg, […] q3d administered via gavage for 4 days measured twice per week during compound dosing; type: functional, organism-based; conditions: time 4.0 day

Nc1ccn([C@@H]2O[C@H](CO)[C@@H](O)C2(F)F)c(=O)n1
TGI (Calu-6 [1]): Active
TGI (Calu-6 [2]): Active

— ChEMBL document CHEMBL5678811 (Invest New Drugs, 2014)
